Experimental data: patent US20230277518A1, “NK RECEPTOR ANTAGONISTS FOR CANCER PATIENTS” (Acer Therapeutics Inc., priority 2020, published 2023)

Tests used:
[1] = animal study; cited from earlier work
[2] = molecular target: CYP3A4 (Homo sapiens, UniProt P08684); conditions: liver; cited from earlier work
[3] = molecular target: CYP2D6 (Homo sapiens, UniProt P10635); conditions: cited from earlier work
[4] = oral dosing, set in the multiple-dose PK model; cited from earlier work
[5] = Two-compartment PK model of osanetant fit to the Sanofi single-dose study; design: species or system human; conditions: two-compartment model parameter
Excerpt: Osanetant (SR 142801) is an NK3 receptor antagonist originally identified by Sanofi. Patacchini R. et al. 1995, Eur J Pharmacol 278 (1):17-25; Nguyen-Le X. K. et al. 1996, Pharmacology 52 (5):283-91; Beaujouan J. C. et al. 1997, Eur J Pharmacol 319 (2-3):307-16; Emonds-Alt X. et al. 1995, Life Sci 56 (1):P127-32). Osanetant pharmacokinetics (PK) was derived from a Study Report by Sanofi describing concentration curves and PK summary data. A two-compartment PK model was derived from the data the concentration: time curves. […] A two-compartment pharmacokinetic model was fit to the single-dose study in the Sanofi Study report.

[6] = human, in vivo; cited from earlier work

Sequence of CYP3A4 (P08684 whole entry): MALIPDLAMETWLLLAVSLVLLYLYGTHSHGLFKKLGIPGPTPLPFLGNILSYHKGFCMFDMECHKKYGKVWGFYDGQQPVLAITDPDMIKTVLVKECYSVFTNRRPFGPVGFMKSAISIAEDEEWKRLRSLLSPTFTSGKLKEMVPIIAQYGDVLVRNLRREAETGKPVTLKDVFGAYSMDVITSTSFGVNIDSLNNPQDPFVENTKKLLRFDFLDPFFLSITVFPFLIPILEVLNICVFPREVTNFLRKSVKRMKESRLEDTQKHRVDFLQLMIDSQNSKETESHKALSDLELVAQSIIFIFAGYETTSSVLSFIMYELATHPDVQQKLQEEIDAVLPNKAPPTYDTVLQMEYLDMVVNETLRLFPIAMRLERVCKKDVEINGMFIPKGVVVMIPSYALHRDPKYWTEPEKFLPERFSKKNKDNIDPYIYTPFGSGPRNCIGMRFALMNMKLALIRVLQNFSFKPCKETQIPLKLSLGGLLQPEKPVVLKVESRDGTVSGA
Sequence of CYP2D6 (P10635 whole entry): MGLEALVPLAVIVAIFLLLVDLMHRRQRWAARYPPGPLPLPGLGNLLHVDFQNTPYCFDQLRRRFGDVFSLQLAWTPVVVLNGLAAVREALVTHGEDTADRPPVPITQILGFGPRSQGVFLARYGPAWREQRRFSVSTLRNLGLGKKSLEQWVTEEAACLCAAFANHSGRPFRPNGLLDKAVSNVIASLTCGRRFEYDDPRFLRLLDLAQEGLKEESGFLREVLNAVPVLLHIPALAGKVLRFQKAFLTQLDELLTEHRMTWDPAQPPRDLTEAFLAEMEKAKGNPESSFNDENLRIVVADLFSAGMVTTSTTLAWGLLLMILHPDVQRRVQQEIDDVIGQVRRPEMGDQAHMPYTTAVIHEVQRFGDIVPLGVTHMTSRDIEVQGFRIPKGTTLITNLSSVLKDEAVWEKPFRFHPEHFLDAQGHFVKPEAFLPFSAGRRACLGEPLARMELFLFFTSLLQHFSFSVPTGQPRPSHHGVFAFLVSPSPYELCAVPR

| Structure (SMILES) | Brain/plasma concentration [1] | clearance mechanism [2] | CYP2D6 activity [3] | Bioavailability [4] | Blood_Liver_transport_k [5] | Q [5] | Vol_central [5] | Vol_periph [5] | ka [5] | patients who experience increased frequency and/or duration of VMS [6] |
| --- | --- | --- | --- | --- | --- | --- | --- | --- | --- | --- |
| CC(=O)N(C)C1(c2ccccc2)CCN(CCC[C@]2(c3ccc(Cl)c(Cl)c3)CCCN(C(=O)c3ccccc3)C2)CC1 [osanetant, (R)—N-(1-(3-(1-benzoyl-3-(3,4-dichlorophenyl)piperidin-3-yl)propyl)-4-phenylpiperidin-4-yl)-N-methylacetamide] | 0.8 | CYP3A4 metabolism in the liver is the primary clearance mechanism | inhibits CYP2D6 activity | 40% | 0.011 min⁻¹ | 13.9 L/min | 620 L | 1768 L | 0.039 min⁻¹ | – |
| CCNC(=O)[C@@H]1CCCN1C(=O)[C@H](CCCNC(=N)N)NC(=O)[C@H](CC(C)C)NC(=O)[C@@H](CC(C)C)NC(=O)[C@H](Cc1ccc(O)cc1)NC(=O)[C@H](CO)NC(=O)[C@H](Cc1c[nH]c2ccccc12)NC(=O)[C@H](Cc1c[nH]cn1)NC(=O)[C@@H]1CCC(=O)N1 [leuprolide] | – | – | – | – | – | – | – | – | – | about 80% |
